Data: US9481734B2, “Immunoglobulin cleavage fragments and disease indicators and compositions for detecting and binding such” (Janssen Biotech, Inc., priority 2007, dated 2016)
No end group written: not given here. *: point of attachment. Biotin = O=C1N[C@H]2[C@H](CS[C@H]2CCCCC(=O)*)N1

Tests used:
[1] = tested on: Fab fragment of the 2095-2 antibody; conditions: Biacore, 25° C., 1:1 (Langmuir) model
Protocol: The specificity of binding was further examined using a Fab fragment of the 2095-2 antibody using a surface plasmon resonance platform (Biacore). Briefly, the Fab was immobilized to a CM5 sensor chip in a Biacore 2000 at three different surface densities (8500, 1650, and 350 RU) using standard NHS/EDC coupling. The running buffer contained 10 mM HEPES pH 7.4, 150 mM NaCl, and 0.01% Tween-20. Data were collected at 25° C.
Three N-terminally biotinylated peptides were tested for binding of to the immobilized Fab: WT, representing the expected sequence of a peptide fragment from a human IgG1 cleavage site after cleavage by the Streptococcus pyogenes IdeS protease; E233A, representing a variant of having a single alanine substitution at the amino acid residue four positions upstream of the C-terminus; and L234A, a variant having a single alanine substitution at the amino acid residue three positions upstream from the C-terminus. The peptides were modified by substituting serine for cysteine to make them compatible with the coupling chemistry and preserve the monomeric structure.
Peptides Wild type and E233A were tested in a 3-fold dilution series using 588 nM and 2.9 uM as the highest concentration, respectively. Peptide L234A was tested at 14.7 uM as the highest concentration in a 2-fold dilution series. Each peptide concentration series was tested in triplicate over the three different density Fab surfaces. The association and dissociation were monitored for 1 minute. Surfaces were regenerated with a 12 second injection of 1/500 dilution of phosphoric acid.

S. aureus (ATCC 29213) = assay: Wiffle ball (tissue cage) S. aureus infection model in rabbits; format: in vivo; conditions: day 2 after inoculation with 6.2 log 10 CFUs, immunized rabbits
Excerpt: In order to test the capacity of cleavage site specific antibodies to rescue cleaved IgGs in vivo, a model for bacterial infection employing a “tissue cage” (Fernandez J A, et. al. (1997) Antimicrob. Agents Chemother. 43(3):667-671) was adopted. In this system, a wiffle ball is surgically implanted subcutaneously in the dorsal cervical area. The model allows the infectious agents to be localized within an easily accessible fluid compartment, a tissue pouch, and has been used to assess the efficacy of antibiotics against bacteria.
In the final phase of the study, the immunized and non-immunized rabbits were inoculated with 6.2 log 10 colony forming units (CFUs) of S. aureus (ATCC 29213) directly into the wiffle-ball compartments.
The bacterial counts and test subject viability were monitored over the course of two weeks for bacterial counts and survival. The data shown in FIG. 13 indicate that during the first week of the study, the average bacterial counts for control animals were several logs higher than cleavage site specific vaccinated animals. For example, on day 2 the control had 7.2 log10 CFU/ml wiffle ball fluid while the immunized group had 5.2 log10 CFU/ml wiffle ball fluid.

human IgG1 = assay: Proteinase digestion of purified IgG1, Agilent biosizing; format: biochemical; conditions: for disappearance of intact IgG (160,000 Da): Mab1, 1% w/w enzyme, 37° C.
human IgG1, sequence (P01857 99-224 limits assumed): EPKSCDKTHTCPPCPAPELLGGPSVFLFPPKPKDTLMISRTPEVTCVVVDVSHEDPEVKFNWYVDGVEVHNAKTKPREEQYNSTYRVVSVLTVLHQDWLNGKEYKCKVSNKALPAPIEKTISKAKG
Protocol: A purified monoclonal antibody comprising a human IgG heavy chain was contacted with the proteases described and sampling was conducted over various durations of contact. Fragmentation in the samples was evaluated using the Agilent microfluidics “lab-on-a-chip” technology for in vitro biosizing (Goetz H et al. Biochemical and Biophysical Methods 60; 281-293, 2004).
Proteinase digestions of purified IgGs were carried out at pH 7.5 in phosphate-buffered saline (PBS) or, for the metalloproteinases, in Tris-buffered saline buffer at 37° C. Calcium chloride was included in the metalloproteinase reactions at 1 mM for MMP-12 and 10 mM for MMP-3; otherwise no additives were used. Antibody concentrations were typically 1 or 2 mg/mL and reactions were initiated by addition of enzyme to a 1% (w/w) ratio to IgG. Aliquots (10-20 μL) were removed at indicated times and the reactions were stopped either by adjustment to 20 mM EDTA (metalloproteinase incubations) or to 1 mM iodoacetamide (cysteine proteinases) or by rapid freezing.
The major proteolytic cleavage positions in the IgG1 hinge were identified for enzyme-generated fragments by N-terminal sequencing of the purified Fc fragment (MMP-3 and MMP-12) and/or high resolution mass spectrometric analyses of the purified Fab (neutrophil elastase, plasmin) and F(ab′)2 (cathepsin G, glutamyl endopeptidase and IdeS) fragments. Fragmentation was evaluated using the Agilent microfluidics “lab-on-a-chip” technology.

[2] = tested on: platelet surface IIb/III3 receptors; assay: Platelet aggregation assay; format: cell-based; conditions: 5 μM adenosine diphosphate (ADP), compared with intact c7E3 IgG
Protocol: c7E3 inhibits platelet aggregation by binding to platelet surface IIb/III3 receptors—thereby blocking the ability of fibrinogen to bind to the receptors on activated platelets and to clump them together. The respective inhibitory profiles of intact and single-cleaved c7E3 IgG were tested in a platelet aggregation assay. Platelet aggregation is measured as an increase of light transmission through a platelet suspension after activation with a physiological agonist. The inhibition is compared to control aggregation to 5 μM adenosine diphosphate (ADP). The percent inhibition was calculated as: control aggregation−test aggregation×100%, divided by control aggregation.

platelets [3] = assay: Restoration of function study in dogs, platelet counts; format: in vivo; conditions: c7E3 variants 0.05 mg/kg, mAb 2095-2 0.5 mg/kg after 10 min delay, groups of 3 animals
Protocol: To be consistent with the prior experiments, the variants of c7E3 were all administered at the 0.05 mg/kg dose. The unique aspect of the experiment (groups 6 and 7) involves the infusion of the first targeting mAb followed by the cleavage site specific mAb after a 10 minute delay. The cleavage site specific IdeS cleavage site mAb, 2095-2, was administered at 0.5 mg/kg; 10-fold higher than the dose used for all of the c7E3 variants. The higher dose was chosen in order to maximize the complexation of cleavage site specific mAb with platelet-bound c7E3 variants. All mAbs were delivered by slow infusion over a 20 minute period. Platelet counts were monitored over a 96-hour period. The platelet counts were normalized to the pre-dose count within each animal for clarity of presentation and to minimize the normal variability in numerical platelet counts in these small 3-animal groups.

platelets [4] = assay: Platelet counts in dogs, intact versus single-cleaved c7E3 IgG; format: in vivo; conditions: 0.05 mg/kg
Protocol: c7E3 IgG and c7E3 IgG single-cleaved by IdeS protease were also compared in vivo. Three groups of 5 animals received either saline control, intact c7E3 IgG (0.05 mg/kg) or c7E3 single-cleaved IgG (0.05 mg/kg). Platelet counts were monitored at baseline and at 2, 24, 48, 72 and 96 hours post-administration. Limiting the study to 5 days minimized the likelihood of anti-c7E3 immune responses that might confound the interpretation of the results. The results are presented in FIG. 3 as the mean platelet count±SD for each animal group at each time point. The extent of the error bars connotes the normal variability of platelet counts in different animals (for example, the predose counts for the 5 animals in the single-cleaved IgG treatment group were 175,000, 355,000, 305,000, 276,000 and 334,000 per μL, respectively).

platelets [5] = assay: Test infusions of c7E3 IgG in dogs, platelet depletion; format: in vivo; conditions: 0.05 mg/kg dose, calculated
Excerpt: First, the c7E3 antibody antigen binding and platelet depletion parameters were established in dogs.

Biotin-TSPPSPAPALLG [E233A]
ka(M-1s-1) × 10^−5 [1]: 7.29 ± 0.03 M-1s-1 × 10^−5
kd [1]: 0.1070 ± 0.04 s⁻¹

Biotin-TSPPSPAPEALG [L234A]
ka(M-1s-1) × 10^−5 [1]: 1.24 ± 0.01 M-1s-1 × 10^−5
kd [1]: 1.03 ± 0.01 s⁻¹

Biotin-TSPPSPAPELLG [Wt]
ka(M-1s-1) × 10^−5 [1]: 5.22 ± 0.04 M-1s-1 × 10^−5
kd [1]: 0.00443 ± 0.02 s⁻¹

C-T-S-P-P-S-P-S-P-A-P-E (CTSPPSPSPAPE; also: conjugated to KLH) [GluV8-cleavage site peptide analogue]
bacterial count (S. aureus (ATCC 29213)): 5.2 log10 CFU/ml wiffle ball fluid

Glutamyl endopeptidase I (Glu V8 protease): Staph. aureus serine endopeptidase
disappearance of intact IgG (160,000 Da) (human IgG1): several hours

Stromelysin (MMP-3): human metalloendopeptidase
disappearance of intact IgG (160,000 Da) (human IgG1): several hours

Tryptase: human serine endopeptidase
Major Product (human IgG1; human IgG1, None denotes no detectable cleavage in 24 hours): None

c7E3 sc IgG: c7E3 IgG single-cleaved by IdeS protease
binding/inhibition of platelet aggregation after single lower hinge cleavage [2]: no loss of binding/inhibition
effect on platelet numbers (platelets [3]): without effect on platelet numbers

B1: c7E3 IgG: anti-platelet integrin (αIIbβIIIa) murine-human IgG1 chimeric antibody (antibody, chains of the INN, looked up, V domains shown)
VH: EVQLQQSGTVLARPGASVKMSCEASGYTFTNYWMHWVKQRPGQGLEWIGAIYPGNSDTSYIQKFKGKAKLTAVTSTTSVYMELSSLTNEDSAVYYCTLYDGYYVFAYWGQGTLVTVSA
VL: EIVLTQSPVTLSVTPGDSVSLSCRASRDISNNLHWFQQTSHESPRLLIKYASQSMSGIPSRFSGSGSGTDFTLSINSVETEDFGMYFCQQTNSWPYTFGGGTKLEIK
modifications: IgG1
notes: anti-platelet integrin (αIIbβIIIa) murine-human IgG1 chimeric antibody
nadir of platelet numbers (platelets [4]): 24 h
recovery of platelet counts (platelets [4]; by 96 hours): approximately 50 % of the pre-dose level
effect on platelet numbers (platelets [4]; groups of 5 animals, 96-hour monitoring): substantial decrease of platelet numbers
αIIbβ3 receptor blockade (platelets [5]): about 5%

B2: c7E3 F(ab′)2: F(ab′)2 of c7E3 prepared using the bacterial enzyme IdeS (antibody, chains of the INN, looked up, V domains shown)
VH: B1 VH
VL: B1 VL
modifications: F(ab')2 IdeS-generated
notes: F(ab′)2 of c7E3 prepared using the bacterial enzyme IdeS
effect on platelet numbers (platelets [3]): without effect on platelet numbers
